Data taken from article PMC4678576, “Optimisation of a triazolopyridine based histone demethylase inhibitor yields a potent and selective KDM2A (FBXL11) inhibitor” (MedChemComm, 2014).

Test: Parallel artificial membrane permeation assay (PAMPA)
Format: in vitro ADME
Settings: for Papp: PAMPA, range over pH 7.4, 6.2, 5.0, read-out: membrane permeability (PAMPA), range over the pH values tested

Structure (SMILES) | Papp [×10⁻⁶ cm/s] | PAMPA Pe pH 5.0 | PAMPA Pe pH 6.2 | PAMPA Pe pH 7.4
O=C(O)c1ccnc(-c2cn([C@@H]3CCCN(C(=O)c4ccccc4)C3)nn2)c1 [Compound 35] | 0.41 to 1.9 | 1.9 10^−6 cm s^−1 | 0.41 10^−6 cm s^−1 | 0.69 10^−6 cm s^−1
COC(=O)c1ccnc(-c2cn([C@@H]3CCCN(C(=O)c4ccccc4)C3)nn2)c1 [Compound 37] | 45 to 56 | 56 10^−6 cm s^−1 | 45 10^−6 cm s^−1 | 52 10^−6 cm s^−1
